Patent publication US8946445B2, “Heterocyclic molecules as apoptosis inducers” (Nanjing Allgen Pharma Co. Ltd., priority 2011, dated 2015)

Experiments:
[1] = tested on: H460 non-small cell lung cancer cell line; experiment: cell viability (proliferation) assay, Trypan blue exclusion counting, H460; assay type: cell-based; settings: H460 cells, compound @ 1 μM, 72 hours, vs 1% DMSO control
Procedure: (§1) Anti-oncogenic effects of the compounds of the present invention were evaluated by cell viability (proliferation) assays in H460 non-small cell lung cancer cell line and A549 human lung carcinoma cell line. H460 and A549 were purchased from ATCC (American Type Culture Collection), and they were maintained in RPMI 1640 and DMEM, respectively, with 10% fetal bovine serum. Cell lines were cultured in an incubator with 5% CO2 at 37° C.
(§2) Cells were seeded in 6-well-plates (10^5 cells/ml medium per well) and allowed them to grow for 24 hrs in the incubator. Cells were then treated with 1 μM of tested compounds. Cells treated with 1% DMSO were used as control. 72 hours after treatment, cells were removed by trypsinization and viable cell number was obtained by counting Trypan blue-excluding cells under microscope with a hemocytometer. Experiments were performed in triplicate. Statistical were carried out by analysis of variance (ANOVA) and LSD test for multiple comparisons, with p<0.05 considered significant.

[2] = tested on: A549 human lung carcinoma cell line; experiment: cell viability (proliferation) assay, Trypan blue exclusion counting, A549; assay type: cell-based; settings: A549 cells, compound @ 1 μM, 72 hours, vs 1% DMSO control
Procedure: as §1, §2

## COC1=CC(c2cc3ccccc3[nH]2)=N/C1=C\c1[nH]c(C)cc1C [Obatoclax]
[1]
  Cell Death (%) after 3-day treatment: 88.3%
[2]
  Cell Death (%) after 3-day treatment: 76.6%

## COC1=CC(c2cc3sc(Cl)cc3[nH]2)=N/C1=C\c1[nH]c(C)cc1C [Example 2, (Z)-2-chloro-5-(2-((3,5-dimethyl-1H-pyrrol-2-yl)methylene)-3-methoxy-2H-pyrrol-5-yl)-4H-thieno[3,2-b]pyrrole]
[1]
  Cell Death (%) after 3-day treatment: 88.6%
[2]
  Cell Death (%) after 3-day treatment: 86.7%
